The source of these data is patent US8889667B2 (Agios Pharmaceuticals, Inc, priority 2010, dated 2014).

For this test, the target named is PKM2 (Homo sapiens, UniProt P14618). Nature of the test: PKM2 Assay (activation, LDH-coupled, absorbance at 340 nm). It counts as biochemical. Here is the method: • PKM2 stock enzyme solution was diluted in Reaction Buffer • 2 μL of compound was added into each well first, and then 180 μL of the Reaction Mix was added. • Reaction mixture with compound (without ADP) was incubated for 30 minutes at 4° C. • Plates were re-equilibrated to room temperature prior to adding 20 μL ADP to initiate the reaction. • Reaction progress was measured as changes in absorbance at 340 nm wavelength at room temperature (25° C.) Reaction Mix: PKM2 (50 ng/well), ADP (0.7 mM), PEP (0.15 mM), NADH (180 μM), LDH (2 units) in Reaction Buffer Reaction Buffer: 100 mM KCl, 50 mM Tris pH 7.5, 5 mM MgCl2, 1 mM DTT, 0.03% BSA.
Chain of PKM2 (P14618 whole entry): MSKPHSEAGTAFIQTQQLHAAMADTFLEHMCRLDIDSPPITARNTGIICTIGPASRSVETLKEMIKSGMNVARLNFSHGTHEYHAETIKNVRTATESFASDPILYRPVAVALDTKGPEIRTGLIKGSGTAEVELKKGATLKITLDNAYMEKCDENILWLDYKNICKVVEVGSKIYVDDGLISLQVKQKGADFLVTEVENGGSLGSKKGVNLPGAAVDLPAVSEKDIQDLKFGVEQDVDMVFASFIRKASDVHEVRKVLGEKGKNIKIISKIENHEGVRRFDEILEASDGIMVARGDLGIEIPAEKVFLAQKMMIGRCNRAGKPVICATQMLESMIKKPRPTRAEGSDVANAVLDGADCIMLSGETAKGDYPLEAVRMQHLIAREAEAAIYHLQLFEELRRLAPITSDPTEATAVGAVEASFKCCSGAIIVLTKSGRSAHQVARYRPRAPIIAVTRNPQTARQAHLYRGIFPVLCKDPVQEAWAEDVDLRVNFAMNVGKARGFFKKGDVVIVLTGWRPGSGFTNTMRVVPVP
Representative compounds of the invention were tested for their ability to activate PKM2 using the above assay. For simplicity, the activation activity of these compounds is represented as an AC50 in Tables 4 and 5 and throughout the application. […] “B” refers to an activator of PKM2 with an EC50 between 100 nM and 500 nM. “C” refers to an activator of PKM2 with an EC50 between 500 nM and 1000 nM. “D” refers to an activator of PKM2 with an EC50 between 1 μM and 20 μM. “E” refers a compound whose activation of PKM2 was not measurable. “N/C” refers to AC50 data not available.

Some results are limits rather than exact numbers.

As to `O=C(O[C@H]1CCOC1)N1CCN(C(=O)c2ccc(NS(=O)(=O)c3cccc4cccnc34)c(OC(F)(F)F)c2)CC1` [Compound 343, (S)-Tetrahydrofuran-3-yl-4-(4-(quinoline-8-sulfonamido)-3-(trifluoromethoxy)benzoyl)piperazine-1-carboxylate], the AC50 (commonly the concentration at which the activity in the assay is half-maximal) (Table 5) lay within 1000 to 20000 nM. Consider `COc1cc(C(=O)N2CCN(C(=O)c3cccc(OC)c3F)CC2)ccc1NS(=O)(=O)c1cccc2cccnc12` [Compound 320, N-(4-(4-(2-fluoro-3-methoxybenzoyl)piperazine-1-carbonyl)-2-methoxyphenyl)quinoline-8-sulfonamide], for which the AC50 (Table 5) lay in the range of 100 to 500 nM. As for `O=C(c1ccc(NS(=O)(=O)c2cccc3cccnc23)c(OC(F)(F)F)c1)N1CCN(C(=O)c2ccccc2F)CC1` [Compound 360], for the setting “Table 5”, the AC50 lay in the range of 100 to 500 nM. `C[C@@H]1CN(Cc2cc(F)c(F)c(F)c2)CCN1C(=O)c1ccc(NS(=O)(=O)c2cccc3cccnc23)cc1` [Compound 149, (R)—N-(4-(2-methyl-4-(3,4,5-trifluorobenzyl)piperazine-1-carbonyl)phenyl)quinoline-8-sulfonamide]: the AC50 (Table 4) was less than 100 nM.

`O=C1CN(C(=O)c2ccc(NS(=O)(=O)c3cccc4cccnc34)cc2)CCN1CC1CC1` [Compound 214]: under “Table 4”, the AC50 fell in the range of 100 to 500 nM. The compound `CC(C)(C(=O)N1CCN(C(=O)c2ccc(NS(=O)(=O)c3cccc4cccnc34)c(OC(F)(F)F)c2)CC1)c1ccccc1` [Compound 359, N-(4-(4-(2-methyl-2-phenylpropanoyl)piperazine-1-carbonyl)-2-(trifluoromethoxy)phenyl)quinoline-8-sulfonamide] showed an AC50 (Table 5) of 100 to 500 nM. Take `C[C@H]1CN(C[C@H]2CCCO2)CCN1C(=O)c1ccc(NS(=O)(=O)c2cccc3cccnc23)cc1` (stereo in doubt) [Compound 211, N-(4-((2S)-2R-methyl-4-((tetrahydrofuran-2-yl)methyl)piperazine-1-carbonyl)phenyl)quinoline-8-sulfonamide]: where the note is “Table 4”, the concentration at half-maximal activity (AC50) is less than 100 nM. Take `COc1cccc(CN2CCN(C(=O)c3ccc(NS(=O)(=O)c4cccc5cccnc45)cc3)[C@H](C)C2)c1OC` [Compound 130, (R)—N-(4-(4-(2,3-dimethoxybenzyl)-2-methylpiperazine-1-carbonyl)phenyl)quinoline-8-sulfonamide]: under “Table 4”, the AC50 was less than 100 nM. For the setting “Table 5”, `O=C(c1cccnc1)N1CCN(C(=O)c2ccc(NS(=O)(=O)c3cccc4cccnc34)c(OC(F)(F)F)c2)CC1` [Compound 323, N-(4-(4-nicotinoylpiperazine-1-carbonyl)-2-(trifluoromethoxy)phenyl)quinoline-8-sulfonamide] yielded an AC50 of 500 to 1000 nM.

In turn, `C[C@@H]1CN(C[C@H]2CCCO2)CCN1C(=O)c1ccc(NS(=O)(=O)c2cccc3cccnc23)cc1` [Compound 212, N-(4-((R)-2-methyl-4-(((R)-tetrahydrofuran-2-yl)methyl)piperazine-1-carbonyl)phenyl)quinoline-8-sulfonamide] displayed an AC50 (Table 4) of less than 100 nM. Same read-out and setting: the result for `C[C@@H]1CN(Cc2c(F)ccc(F)c2F)CCN1C(=O)c1ccc(NS(=O)(=O)c2cccc3cccnc23)cc1` [Compound 132, (R)—N-(4-(2-methyl-4-(2,3,6-trifluorobenzyl)piperazine-1-carbonyl)phenyl)quinoline-8-sulfonamide] reads less than 100 nM.

Compound `O=C(c1ccc(NS(=O)(=O)c2cccc3cccnc23)c(OC(F)(F)F)c1)N1CCN(Cc2ccc(C(F)(F)F)cc2)CC1` [Compound 334, N-(2-(trifluoromethoxy)-4-(4-(4-(trifluoromethyl)benzyl)piperazine-1-carbonyl)phenyl)quinoline-8-sulfonamide] had an AC50 (Table 5) of 100 to 500 nM. As to `O=C(c1ccc(NS(=O)(=O)c2cccc3cccnc23)cc1Cl)N1CCN(Cc2cc(F)cc(F)c2)CC1` [Compound 426, N-(3-chloro-4-(4-(3,5-difluorobenzyl)piperazine-1-carbonyl)phenyl)quinoline-8-sulfonamide], the half-maximal activity concentration (AC50) (Table 5) is less than 100 nM. Still for that read-out and setting: the result for `O=C(c1ccc(NS(=O)(=O)c2cccc3cccnc23)cc1)N1CCN(Cc2cn[nH]c2)CC1` [Compound 385, N-(4-(4-((1H-pyrazol-4-yl)methyl)piperazine-1-carbonyl)phenyl)quinoline-8-sulfonamide] reads less than 100 nM. As to `C[C@H]1CN(Cc2cc(F)cc(F)c2)CCN1C(=O)c1ccc(NS(=O)(=O)c2cccc3cccnc23)cc1` [Compound 142, (S)—N-(4-(4-(3,5-difluorobenzyl)-2-methylpiperazine-1-carbonyl)phenyl)quinoline-8-sulfonamide], the AC50 (Table 4) was less than 100 nM. Consider `O=C(c1ccc(NS(=O)(=O)c2cccc3cccnc23)cc1)N1CCN(Cc2c[nH]cn2)CC1` [Compound 386, N-(4-(4-((1H-imidazol-4-yl)methyl)piperazine-1-carbonyl)phenyl)quinoline-8-sulfonamide], for which the AC50 (Table 5) fell in the range of 100 to 500 nM. Where the note is “Table 5”, `O=C(c1ccc(NS(=O)(=O)c2cccc3cccnc23)cc1Cl)N1CCN(CC2CCOC2)CC1` (centres unmarked) [Compound 429, N-(3-chloro-4-(4-((tetrahydrofuran-3-yl)methyl)piperazine-1-carbonyl)phenyl)quinoline-8-sulfonamide] gave an AC50 of 100 to 500 nM. In the case of `C[C@@H]1CN(C(=O)OCC2CCCO2)CCN1C(=O)c1ccc(NS(=O)(=O)c2cccc3cccnc23)cc1` (stereo partly drawn) [Compound 128, (3R)-(Tetrahydrofuran-2-yl)methyl3-methyl-4-(4-(quinoline-8-sulfonamido)benzoyl)piperazine-1-carboxylate], the AC50 (Table 4) is less than 100 nM.

On to `Cc1cnc(C(=O)N2CCN(C(=O)c3ccc(NS(=O)(=O)c4cccc5cccnc45)c(OC(F)(F)F)c3)CC2)cn1` [Compound 325], for which the AC50 (Table 5) lay within 1000 to 20000 nM. On the same count and under the same terms, the result for `O=C(O[C@@H]1CCOC1)N1CCN(C(=O)c2ccc(NS(=O)(=O)c3cccc4cccnc34)c(OC(F)(F)F)c2)CC1` [Compound 311] reads 1000 to 20000 nM. The same measure, in the same setting: the result for `O=C(c1ccc(NS(=O)(=O)c2cccc3cccnc23)cc1)N1CCN(C2(c3ccccc3)CCCC2)CC1` [Compound 406, N-(4-(4-(1-phenylcyclopentyl)piperazine-1-carbonyl)phenyl)quinoline-8-sulfonamide] reads less than 100 nM.

As to `CC(c1ccc(F)c(F)c1F)N1CCN(C(=O)c2ccc(NS(=O)(=O)c3cccc4cccnc34)cc2)[C@@H](C)C1` (some centres unmarked) [Compound 173], for the setting “Table 4”, the AC50 is 100 to 500 nM. `CC(c1cc(F)c(F)c(F)c1)N1CCN(C(=O)c2ccc(NS(=O)(=O)c3cccc4cccnc34)cc2)CC1` (centres unmarked) [Compound 398, N-(4-(4-(1-(3,4,5-trifluorophenyl)ethyl)piperazine-1-carbonyl)phenyl)quinoline-8-sulfonamide] displayed an AC50 (Table 5) of 1000 to 20000 nM. Still for that read-out and setting: the result for `COc1ccncc1CN1CCN(C(=O)c2ccc(NS(=O)(=O)c3cccc4cccnc34)c(OC(F)(F)F)c2)CC1` [Compound 305, N-(4-(4-((4-methoxypyridin-3-yl)methyl)piperazine-1-carbonyl)-2-(trifluoromethoxy)phenyl)quinoline-8-sulfonamide] reads 100 to 500 nM; that for `CC(c1c(F)cc(F)cc1F)N1CCN(C(=O)c2ccc(NS(=O)(=O)c3cccc4cccnc34)cc2)CC1` (centres unmarked) [Compound 397, N-(4-(4-(1-(2,4,6-trifluorophenyl)ethyl)piperazine-1-carbonyl)phenyl)quinoline-8-sulfonamide], less than 100 nM. `O=C(c1ccc(NS(=O)(=O)c2cccc3cccnc23)cc1)N1CCN(CC2CCC2)CC1` [Compound 419, N-(4-(4-(cyclobutylmethyl)piperazine-1-carbonyl)phenyl)quinoline-8-sulfonamide] gave an AC50 (Table 5) of less than 100 nM.
